A word on the EC50: it is the concentration giving half of the maximal effect. A higher EC50 goes with a less potent agent.

Our source for the EC50 values is patent publication US20220056019A1, “FARNESOID X RECEPTOR AGONISTS AND USES THEREOF” (Metacrine, Inc., priority 2018, published 2022).

In this assay the target is T1, hFXR (Homo sapiens, UniProt Q96RI1).
T1 construct: expressed in transfected cells; host or cells: CV-1 cells
T1 sequence (Q96RI1 1-486): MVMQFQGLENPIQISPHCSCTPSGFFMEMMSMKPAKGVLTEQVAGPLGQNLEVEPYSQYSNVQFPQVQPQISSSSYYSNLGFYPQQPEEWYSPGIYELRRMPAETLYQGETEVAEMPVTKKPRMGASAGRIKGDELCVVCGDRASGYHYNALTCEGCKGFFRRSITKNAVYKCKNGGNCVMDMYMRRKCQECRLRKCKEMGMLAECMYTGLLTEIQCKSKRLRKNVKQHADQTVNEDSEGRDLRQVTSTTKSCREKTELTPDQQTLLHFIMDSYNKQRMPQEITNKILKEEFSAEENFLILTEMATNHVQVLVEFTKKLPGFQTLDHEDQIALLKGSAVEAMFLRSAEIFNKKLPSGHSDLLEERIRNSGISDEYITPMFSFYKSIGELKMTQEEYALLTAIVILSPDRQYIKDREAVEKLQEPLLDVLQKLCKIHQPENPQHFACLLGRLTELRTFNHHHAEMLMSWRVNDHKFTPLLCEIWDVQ
T1 sequence (P19793 1-462 partner): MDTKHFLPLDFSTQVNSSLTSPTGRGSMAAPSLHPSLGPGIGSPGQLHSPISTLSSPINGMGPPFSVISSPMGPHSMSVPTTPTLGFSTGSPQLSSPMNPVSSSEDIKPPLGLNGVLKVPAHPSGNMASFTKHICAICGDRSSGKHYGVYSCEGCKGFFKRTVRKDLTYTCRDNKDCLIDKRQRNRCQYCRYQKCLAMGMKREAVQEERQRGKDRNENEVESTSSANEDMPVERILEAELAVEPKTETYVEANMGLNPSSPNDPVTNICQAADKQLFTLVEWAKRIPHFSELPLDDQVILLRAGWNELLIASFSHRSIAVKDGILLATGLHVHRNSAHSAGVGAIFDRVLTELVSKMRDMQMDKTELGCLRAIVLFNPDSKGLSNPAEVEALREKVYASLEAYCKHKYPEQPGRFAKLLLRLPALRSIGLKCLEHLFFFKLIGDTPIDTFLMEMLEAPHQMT
Kind of assay: In Vitro FXR Assay (TK): TK-ECRE-luc reporter in transfected CV-1 cells. It counts as cell-based. As to conditions: 18 hrs incubation, luminescence. The method in brief:
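CV-1, DMEM/10% charcoal-stripped FBS, 37 °C 5% CO2. Transfection O/N: hFXR + hRXR + TK-ECRE-luc + pCMX-YFP. Cpds (DMSO serial dil.) 18 h; lyse, read luminescence.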
Turning to `COc1ccc(C23CCC(CN(c4cc(-c5cnc(C(C)C)s5)ccn4)C(=O)[C@H]4CC[C@H](OC(=O)NCCO)CC4)(CC2)CC3)cc1C` [Compound 4.36, 4-((4-(2-Isopropylthiazol-5-yl)pyridin-2-yl)((4-(4-methoxy-3-methylphenyl)bicyclo[2.2.2]octan-1-yl)methyl)carbamoyl) cyclohexyl(2-hydroxyethyl)trans-carbamate], the EC50 is not above 50 nM.
In turn, `COc1ccc([C@H]2CC[C@H](CN(c3cc(-c4cnn(C(C)C)c4)ccn3)C(=O)[C@H]3CC[C@H](OC(=O)NCC(C)(C)CO)CC3)CC2)cc1C` [Compound 2.20, trans-4-((4-(1-Isopropyl-1H-pyrazol-4-yl)pyridin-2-yl) ((trans-4-(4-methoxy-3-methylphenyl)cyclohexyl)methyl)carbamoyl) cyclohexyl(3-hydroxy-2,2-dimethylpropyl)carbamate] gave an EC50 not above 50 nM.
In turn, `COc1ccc(C23CCC(CN(c4cc(-c5cnn(C(C)C(F)(F)F)c5)ccn4)C(=O)[C@H]4CC[C@H](OC(=O)N5CC(O)C5)CC4)(CC2)CC3)cc1C` (stereo partly drawn) [Compound 26.11, 4-(((4-(4-Methoxy-3-methylphenyl)bicyclo[2.2.2]octan-1-yl)methyl)(4-(1-(1,1,1-trifluoropropan-2-yl)-1H-pyrazol-4-yl)pyridin-2-yl)carbamoyl)cyclohexyl trans-3-hydroxyazetidine-1-carboxylate] showed an EC50 not above 50 nM.
As for `COc1ncc([C@H]2CC[C@H](CN(c3cc(-c4cnn(C(C)C)c4)ccn3)C(=O)[C@H]3CC[C@H](OC(=O)N4CC(N(C)C)C4)CC3)CC2)cc1C` [Compound 1.04, trans-4-((4-(1-Isopropyl-1H-pyrazol-4-yl)pyridin-2-yl)(((trans)-4-(6-methoxy-5-methylpyridin-3-yl)cyclohexyl)methyl)carbamoyl) cyclohexyl 3-(dimethylamino)azetidine-1-carboxylate], the concentration for a half-maximal effect (EC50) is not above 50 nM.
The compound `COc1ccc(C23CCC(CN(c4cc(-c5cnn(C6CCC6)c5)ccn4)C(=O)[C@H]4CC[C@H](OC(=O)N5CC(CO)C5)CC4)(CC2)CC3)cc1C` [Compound 23.10, 4-((4-(1-Cyclobutyl-1H-pyrazol-4-yl)pyridin-2-yl)((4-(4-methoxy-3-methylphenyl)bicyclo[2.2.2]octan-1-yl)methyl)carbamoyl)(trans-cyclohexyl) 3-(hydroxymethyl)azetidine-1-carboxylate] had an EC50 not above 50 nM.
`COc1ccc([C@H]2CC[C@H](CN(c3cc(-c4cnn(C(C)C)c4)ccn3)C(=O)[C@H]3CC[C@H](OC(=O)N4CC(S(C)(=O)=O)C4)CC3)CC2)cc1C` [Compound 2.12, trans-4-((4-(1-Isopropyl-1H-pyrazol-4-yl)pyridin-2-yl)(((trans)-4-(4-methoxy-3-methylphenyl)cyclohexyl)methyl)carbamoyl) cyclohexyl 3-(methylsulfonyl)azetidine-1-carboxylate]: the EC50 is not above 50 nM.
As for `COc1ccc(C23CCC(CN(c4cc(-c5cnn(C(C)C)c5)ccn4)C(=O)[C@H]4CC[C@H](NC(=O)OCCO)CC4)(CC2)CC3)cc1C` [Compound 7, (trans)-2-Hydroxyethyl (4-((4-(1-isopropyl-1H-pyrazol-4-yl)pyridine-2-yl)((4-(4-methoxy-3-methylphenyl)bicyclo[2.2.2]octan-1-yl)methyl)carbamoyl)cyclohexyl)carbamate], the concentration for a half-maximal effect (EC50) is not above 50 nM.
For the compound `COc1ccc([C@H]2CC[C@H](CN(c3cc(-c4cnn(C(C)C)c4)ccn3)C(=O)[C@H]3CC[C@H](OC(=O)NCCCO)CC3)CC2)cc1C` [Compound 2.19, trans-4-((4-(1-Isopropyl-1H-pyrazol-4-yl)pyridin-2-yl) ((trans-4-(4-methoxy-3-methylphenyl)cyclohexyl)methyl)carbamoyl) cyclohexyl(3-hydroxypropyl)carbamate], the concentration for a half-maximal effect (EC50) is not above 50 nM.
On to `COc1ccc([C@H]2CC[C@H](CN(c3cccc(-c4cnn(C(C)C)c4)c3)C(=O)[C@H]3CC[C@H](CNS(=O)(=O)C(C)C)CC3)CC2)cc1C` [Compound 12.04, (trans)-N-(3-(1-Isopropyl-1H-pyrazol-4-yl)phenyl)-N-(((trans)-4-(4-methoxy-3-methylphenyl)cyclohexyl)methyl)-4-((1-methylethylsulfonamido)methyl)cy-clohexanecarboxamide], for which the EC50 was 50 to 1000 nM.
For the compound `COc1ccc(C23CCC(CN(c4cc(-c5cnn(C(C)C)c5)cc(Cl)n4)C(=O)[C@H]4CC[C@H](OC(=O)N5CC(O)C5)CC4)(CC2)CC3)cc1C` [Compound 4.40, 4-((6-Chloro-4-(1-isopropyl-1H-pyrazol-4-yl)pyridin-2-yl)((4-(4-methoxy-3-methylphenyl)bicyclo[2.2.2]octan-1-yl)methyl)carbamoyl) cyclohexyl trans-3-hydroxyazetidine-1-carboxylate], the EC50 was not above 50 nM.
Take `COc1ccc([C@H]2CC[C@H](CN(c3cc(-c4coc(C5CC5)n4)ccn3)C(=O)[C@H]3CC[C@H](OC(=O)NC4COC4)CC3)CC2)cc1C` [Compound 2.53, trans-4-((4-(2-Cyclopropyloxazol-4-yl)pyridin-2-yl)(((trans)-4-(4-methoxy-3-methylphenyl)cyclohexyl)methyl)carbamoyl)cyclohexyl oxetan-3-ylcarbamate]: the EC50 was not above 50 nM.
Take `COc1ccc(C23CCC(CN(c4cc(-n5cnc(C(C)C)n5)ccn4)C(=O)[C@H]4CC[C@H](OC(=O)N5CC(O)C5)CC4)(CC2)CC3)cc1C` [Compound 4.18, 4-((4-(3-Isopropyl-1H-1,2,4-triazol-1-yl)pyridin-2-yl)((4-(4-methoxy-3-methylphenyl)bicyclo [2.2.2]octan-1-yl)methyl)carbamoyl)cyclohexyl 3-hydroxyazetidine-trans-1-carboxylate]: the EC50 was not above 50 nM.
Consider `COc1ccc(C23CCC(CN(c4cc(-c5cc(C(C)C)on5)ccn4)C(=O)[C@H]4CC[C@H](OC(=O)N5CC(O)C5)CC4)(CC2)CC3)cc1C` [Compound 4.27, 4-((4-(5-Isopropylisoxazol-3-yl)pyridin-2-yl)((4-(4-methoxy-3-methylphenyl)bicyclo[2.2.2]octan-1-yl)methyl)carbamoyl) cyclohexyl 3-hydroxyazetidine-trans-1-carboxylate], for which the 50% effective concentration (EC50) is not above 50 nM.
Take `COc1ccc([C@H]2CC[C@H](CN(c3cc(-c4cnn(C(C)C)c4)ccn3)C(=O)[C@H]3CC[C@H](OC(=O)NC[C@H](F)CF)CC3)CC2)cc1C` [Compound 2.33, trans-4-((4-(1-Isopropyl-1H-pyrazol-4-yl)pyridin-2-yl)(((trans)-4-(4-methoxy-3-methylphenyl)cyclohexyl)methyl)carbamoyl) cyclohexyl((S)-2,3-difluoropropyl) carbamate]: the EC50 is not above 50 nM.
The compound `CCC(=O)N[C@H]1CC[C@H](C(=O)N(C[C@H]2CC[C@H](c3ccc(OC)c(C)c3)CC2)c2cccc(-c3cnn(C(C)C)c3)c2)CC1` [Compound 10, trans-N-(3-(1-Isopropyl-1H-pyrazol-4-yl)phenyl)-N-((trans-4-(4-methoxy-3-methylphenyl)cyclohexyl)methyl)-4-propionamidocyclohexanecarboxamide] came in with a 50% effective concentration (EC50) not above 50 nM.
Compound `COc1ccc(C23CCC(CN(c4cc(-c5cnn(C(C)C)c5)ccn4)C(=O)[C@H]4CC[C@H](OC(=O)NCCO)CC4)(CC2)CC3)cc1C` [Compound 4.05, 4-((4-(1-Isopropyl-1H-pyrazol-4-yl)pyridin-2-yl)((4-(4-methoxy-3-methylphenyl)bicyclo [2.2.2]octan-1-yl)methyl)carbamoyl)cyclohexyl (2-hydroxyethyl)trans-carbamate] had an EC50 not above 50 nM.
For `COc1ccc(C23CCC(CN(c4ccnc(-c5cnn(C6(C)CCC6)c5)c4)C(=O)[C@H]4CC[C@H](OC(=O)N5CC(O)C5)CC4)(CC2)CC3)cc1C` [Compound 25.23, 4-(((4-(4-Methoxy-3-methylphenyl)bicyclo[2.2.2]octan-1-yl)methyl)(2-(1-(1-methylcyclobutyl)-1H-pyrazol-4-yl)pyridin-4-yl)carbamoyl)cyclohexyl trans-3-hydroxyazetidine-1-carboxylate] the value was not above 50 nM.
For `COc1ccc(C23CCC(CN(c4cncc(-c5cnn(C6(C)CCC6)c5)c4)C(=O)[C@H]4CC[C@H](OC(=O)N5CC(O)C5)CC4)(CC2)CC3)cc1C` [Compound 25.22, 4-(((4-(4-Methoxy-3-methylphenyl)bicyclo[2.2.2]octan-1-yl)methyl)(5-(1-(1-methylcyclobutyl)-1H-pyrazol-4-yl)pyridin-3-yl)carbamoyl)cyclohexyl trans-3-hydroxyazetidine-1-carboxylate] the value was not above 50 nM.
